Laboratory results: ChEMBL document CHEMBL1212818, “Polyamines inhibit carbonic anhydrases by anchoring to the zinc-coordinated water molecule” (J Med Chem, 2010)

Experiments:
Carbonic anhydrase 12 = Carbonic anhydrase 12 (Homo sapiens, UniProt O43570)
Carbonic anhydrase 2 = Carbonic anhydrase 2 (Homo sapiens, UniProt P00918)
Carbonic anhydrase 14 = Carbonic anhydrase 14 (Homo sapiens, UniProt Q9ULX7)
Carbonic anhydrase 6 = Carbonic anhydrase 6 (Homo sapiens, UniProt P23280)
Carbonic anhydrase 13 = Carbonic anhydrase 13 (Mus musculus, UniProt Q9D6N1)
[1] = molecular target: Carbonic anhydrase 5A, mitochondrial (Homo sapiens, UniProt P35218)
[2] = molecular target: Carbonic anhydrase 5B, mitochondrial (Homo sapiens, UniProt Q9Y2D0)
Carbonic anhydrase 1 = Carbonic anhydrase 1 (Homo sapiens, UniProt P00915)
Carbonic anhydrase 3 = Carbonic anhydrase 3 (Homo sapiens, UniProt P07451)
Carbonic anhydrase 15 = molecular target: T1, Carbonic anhydrase 15 (Mus musculus, UniProt Q99N23)
T1 sequence (Q99N23 whole entry): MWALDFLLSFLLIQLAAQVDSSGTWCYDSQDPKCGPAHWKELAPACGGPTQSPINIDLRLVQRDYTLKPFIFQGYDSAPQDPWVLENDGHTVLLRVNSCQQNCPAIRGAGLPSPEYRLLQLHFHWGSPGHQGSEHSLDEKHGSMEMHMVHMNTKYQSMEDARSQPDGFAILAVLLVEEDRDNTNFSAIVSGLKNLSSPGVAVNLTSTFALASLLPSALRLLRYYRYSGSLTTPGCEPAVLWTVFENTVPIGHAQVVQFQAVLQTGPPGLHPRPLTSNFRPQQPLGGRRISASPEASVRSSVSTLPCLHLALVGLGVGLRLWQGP

Carbonic anhydrase 4 = Carbonic anhydrase 4 (Homo sapiens, UniProt P22748)
Carbonic anhydrase 7 = Carbonic anhydrase 7 (Homo sapiens, UniProt P43166)
Carbonic anhydrase 9 = Carbonic anhydrase 9 (Homo sapiens, UniProt Q16790)

Carbonic anhydrase 3, sequence (P07451 whole entry): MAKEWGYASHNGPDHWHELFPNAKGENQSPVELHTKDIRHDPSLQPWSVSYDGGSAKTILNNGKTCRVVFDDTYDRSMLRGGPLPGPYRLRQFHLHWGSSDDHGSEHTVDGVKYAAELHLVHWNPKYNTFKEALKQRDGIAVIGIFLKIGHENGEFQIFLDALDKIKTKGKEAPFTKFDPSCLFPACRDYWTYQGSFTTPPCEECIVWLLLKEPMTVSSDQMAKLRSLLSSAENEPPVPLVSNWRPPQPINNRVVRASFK
Carbonic anhydrase 5B, mitochondrial, sequence (Q9Y2D0 whole entry): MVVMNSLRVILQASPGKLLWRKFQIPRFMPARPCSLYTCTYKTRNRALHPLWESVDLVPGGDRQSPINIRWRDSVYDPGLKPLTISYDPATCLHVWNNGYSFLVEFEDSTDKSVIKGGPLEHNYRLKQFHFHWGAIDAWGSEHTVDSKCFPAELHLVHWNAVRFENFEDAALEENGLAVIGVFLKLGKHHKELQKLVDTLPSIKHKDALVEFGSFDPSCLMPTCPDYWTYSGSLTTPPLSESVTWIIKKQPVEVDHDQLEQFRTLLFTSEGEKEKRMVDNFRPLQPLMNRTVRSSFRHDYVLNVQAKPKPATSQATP
Carbonic anhydrase 7, sequence (P43166 whole entry): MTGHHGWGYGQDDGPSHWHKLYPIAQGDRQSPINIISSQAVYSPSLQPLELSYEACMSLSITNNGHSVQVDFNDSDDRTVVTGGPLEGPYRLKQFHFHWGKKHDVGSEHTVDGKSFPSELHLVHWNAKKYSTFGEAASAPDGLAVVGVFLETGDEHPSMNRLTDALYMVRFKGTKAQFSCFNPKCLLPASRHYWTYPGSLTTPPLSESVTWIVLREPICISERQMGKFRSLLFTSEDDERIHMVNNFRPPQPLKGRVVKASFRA
Carbonic anhydrase 13, sequence (Q9D6N1 whole entry): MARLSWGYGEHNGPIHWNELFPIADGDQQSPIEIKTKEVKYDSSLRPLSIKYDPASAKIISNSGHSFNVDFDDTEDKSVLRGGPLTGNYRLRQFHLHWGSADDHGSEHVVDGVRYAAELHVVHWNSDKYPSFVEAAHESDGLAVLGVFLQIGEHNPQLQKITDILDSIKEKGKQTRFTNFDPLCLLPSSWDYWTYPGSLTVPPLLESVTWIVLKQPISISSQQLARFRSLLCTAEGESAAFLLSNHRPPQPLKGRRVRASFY
Carbonic anhydrase 1, sequence (P00915 whole entry): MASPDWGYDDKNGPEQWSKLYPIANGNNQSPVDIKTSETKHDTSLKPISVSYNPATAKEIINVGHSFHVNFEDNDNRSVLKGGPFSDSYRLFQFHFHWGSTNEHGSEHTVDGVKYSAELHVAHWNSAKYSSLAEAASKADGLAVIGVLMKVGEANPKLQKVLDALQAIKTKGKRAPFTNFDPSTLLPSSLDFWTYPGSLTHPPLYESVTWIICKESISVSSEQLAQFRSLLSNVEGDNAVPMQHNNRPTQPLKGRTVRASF
Carbonic anhydrase 5A, mitochondrial, sequence (P35218 whole entry): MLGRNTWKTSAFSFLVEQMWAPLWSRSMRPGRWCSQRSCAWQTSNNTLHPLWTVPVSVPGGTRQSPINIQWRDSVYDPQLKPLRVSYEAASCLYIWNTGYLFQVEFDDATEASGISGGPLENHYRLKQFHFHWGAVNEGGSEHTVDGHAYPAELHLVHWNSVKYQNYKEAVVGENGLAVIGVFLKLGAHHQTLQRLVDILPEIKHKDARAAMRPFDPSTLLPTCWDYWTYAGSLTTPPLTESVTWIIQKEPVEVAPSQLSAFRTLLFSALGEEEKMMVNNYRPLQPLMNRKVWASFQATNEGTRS
Carbonic anhydrase 14, sequence (Q9ULX7 whole entry): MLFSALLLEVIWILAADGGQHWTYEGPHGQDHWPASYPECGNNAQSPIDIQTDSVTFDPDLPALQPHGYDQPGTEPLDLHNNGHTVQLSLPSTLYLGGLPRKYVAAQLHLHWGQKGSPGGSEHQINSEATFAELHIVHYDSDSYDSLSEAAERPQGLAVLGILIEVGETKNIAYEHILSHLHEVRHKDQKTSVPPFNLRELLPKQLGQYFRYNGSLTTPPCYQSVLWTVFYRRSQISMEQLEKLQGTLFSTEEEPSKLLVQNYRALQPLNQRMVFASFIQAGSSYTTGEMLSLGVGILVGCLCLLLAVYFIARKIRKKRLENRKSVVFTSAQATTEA
Carbonic anhydrase 6, sequence (P23280 whole entry): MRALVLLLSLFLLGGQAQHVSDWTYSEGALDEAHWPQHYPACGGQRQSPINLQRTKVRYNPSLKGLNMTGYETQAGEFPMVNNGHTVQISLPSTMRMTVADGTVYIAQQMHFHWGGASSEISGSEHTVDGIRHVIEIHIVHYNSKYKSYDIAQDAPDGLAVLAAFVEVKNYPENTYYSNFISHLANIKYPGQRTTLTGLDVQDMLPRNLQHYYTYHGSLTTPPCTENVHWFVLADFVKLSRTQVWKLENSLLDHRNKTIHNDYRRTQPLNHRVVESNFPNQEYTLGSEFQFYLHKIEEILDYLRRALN
Carbonic anhydrase 12, sequence (O43570 whole entry): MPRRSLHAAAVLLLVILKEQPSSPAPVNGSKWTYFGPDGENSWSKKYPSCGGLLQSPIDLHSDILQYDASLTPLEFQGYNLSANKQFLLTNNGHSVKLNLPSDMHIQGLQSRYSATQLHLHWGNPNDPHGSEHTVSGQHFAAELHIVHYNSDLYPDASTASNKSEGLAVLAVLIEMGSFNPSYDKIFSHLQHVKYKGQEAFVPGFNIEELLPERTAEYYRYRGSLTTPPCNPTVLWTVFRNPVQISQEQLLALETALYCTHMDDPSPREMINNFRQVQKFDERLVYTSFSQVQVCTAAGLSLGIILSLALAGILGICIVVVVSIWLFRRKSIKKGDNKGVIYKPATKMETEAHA
Carbonic anhydrase 4, sequence (P22748 whole entry): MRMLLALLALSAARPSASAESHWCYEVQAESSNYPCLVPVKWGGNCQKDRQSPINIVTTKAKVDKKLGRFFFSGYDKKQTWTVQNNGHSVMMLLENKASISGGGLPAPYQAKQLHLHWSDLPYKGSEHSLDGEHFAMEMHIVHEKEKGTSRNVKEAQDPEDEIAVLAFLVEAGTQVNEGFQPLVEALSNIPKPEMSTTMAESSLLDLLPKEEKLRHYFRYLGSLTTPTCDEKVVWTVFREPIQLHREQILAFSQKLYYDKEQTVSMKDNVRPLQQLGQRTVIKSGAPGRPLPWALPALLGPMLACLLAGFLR

Row | Structure (SMILES) | Ki (Carbonic anhydrase 12) | Ki (Carbonic anhydrase 2) | Ki (Carbonic anhydrase 14) | Ki (Carbonic anhydrase 6) | Ki (Carbonic anhydrase 13) | Ki [1] | Ki [2] | Ki (Carbonic anhydrase 1) | Ki (Carbonic anhydrase 3) | Ki (Carbonic anhydrase 15) | Ki (Carbonic anhydrase 4) | Ki (Carbonic anhydrase 7) | Ki (Carbonic anhydrase 9)
1 | CC(C)(C)OC(=O)N(CCCCN(CCCNC(=O)C(F)(F)F)C(=O)OC(C)(C)C)CCCNC(=O)C(F)(F)F | 175 µM | 107 µM | 85 µM | 104 µM | 179 µM | 125 µM | 103 µM | > 500 µM | 112 µM | > 500 µM | 104 µM | 107 µM | 
2 | CN(C)CCN(C)CCN(C)CCN(C)C | 0.52 µM | 11.2 µM | 0.74 µM | 0.78 µM | 0.58 µM | 0.047 µM | 0.71 µM | > 500 µM | 0.52 µM | 0.76 µM | 0.053 µM | 0.73 µM | 0.31 µM
3 | O=C(NCCNCCCNCCNC(=O)C(F)(F)F)C(F)(F)F | 112 µM | 112 µM | 125 µM | 156 µM | 131 µM | 62 µM | 54 µM | 122 µM | 96 µM | 104 µM | 108 µM | 108 µM | 117 µM
4 | CC(C)(C)OC(=O)N(CCCN(CCNC(=O)C(F)(F)F)C(=O)OC(C)(C)C)CCNC(=O)C(F)(F)F | > 500 µM | > 500 µM | > 500 µM | > 500 µM | > 500 µM | 416 µM | 401 µM | > 500 µM | > 500 µM | > 500 µM | 309 µM | > 500 µM | > 500 µM
5 | O=C(NCCNCCNCCNC(=O)C(F)(F)F)C(F)(F)F | > 500 µM | > 500 µM | > 500 µM | > 500 µM | > 500 µM | > 500 µM | > 500 µM | > 500 µM | > 500 µM | > 500 µM | > 500 µM | > 500 µM | > 500 µM
6 | CC(C)(C)OC(=O)N(CCNC(=O)C(F)(F)F)CCN(CCNC(=O)C(F)(F)F)C(=O)OC(C)(C)C | > 500 µM | > 500 µM | > 500 µM | > 500 µM | > 500 µM | > 500 µM | > 500 µM | > 500 µM | > 500 µM | > 500 µM | > 500 µM | > 500 µM | > 500 µM
7 | CC(=O)NCCNc1cccc2ccccc12 | 21.5 µM | 121 µM | 34 µM | 109 µM | 127 µM | 106 µM | 107 µM | > 500 µM | 128 µM | 110 µM | 12.3 µM | 1.24 µM | 12.2 µM
8 | CC(C)(C)OC(=O)N(CCCN)CCCCN(CCCN)C(=O)OC(C)(C)C | 165 µM | 110 µM | 115 µM | 114 µM | 136 µM | 131 µM | 107 µM | 137 µM | 132 µM | 236 µM | 103 µM | 108 µM | 144 µM
9 | Oc1ccccc1 [PHENOL] |  |  |  |  | > 500 µM |  | > 500 µM |  |  |  |  | > 500 µM | 

More lines, in order of falling Ki (Carbonic anhydrase 12), values ahead:

Row | Ki (Carbonic anhydrase 12) | Ki (Carbonic anhydrase 2) | Ki (Carbonic anhydrase 14) | Ki (Carbonic anhydrase 6) | Ki (Carbonic anhydrase 13) | Ki [1] | Ki [2] | Ki (Carbonic anhydrase 1) | Ki (Carbonic anhydrase 3) | Ki (Carbonic anhydrase 15) | Ki (Carbonic anhydrase 4) | Ki (Carbonic anhydrase 7) | Ki (Carbonic anhydrase 9) | Structure (SMILES)
10 | 68 µM | 75 µM | 36 µM | 53 µM | 66 µM | 50 µM | 59 µM | 115 µM | 63 µM | 66 µM | 44 µM | 58 µM | 48 µM | NCCNCCCNCCN
11 | 57 µM | 64 µM | 12.1 µM | 43 µM | 52 µM | 38 µM | 49 µM | 100 µM | 48 µM | 59 µM | 35 µM | 45 µM | 39 µM | NCCNCCNCCN [TRIENTINE]
12 | 44.1 µM | 1.11 µM | 1 µM | 1.41 µM | 11.6 µM | 1.22 µM | 1.44 µM | 1.4 µM | 11.5 µM | 10 µM | 0.112 µM | 1.23 µM | 1.37 µM | NCCCCNCCCN [SPERMIDINE]
13 | 27.6 µM |  | 0.86 µM | 0.99 µM | 22.6 µM | 0.84 µM | 0.83 µM | 231 µM | 167 µM | 74 µM |  | 0.71 µM | 13.3 µM | NCCCNCCCCNCCCN [SPERMINE]
14 | 11.4 µM | 118 µM | 10.1 µM | 11.5 µM | 11.5 µM | 110 µM | 11 µM | 415 µM | 117 µM | 105 µM | 116 µM | 12.1 µM | 10.6 µM | NCCNCCN
15 | 10.2 µM | 11.3 µM | 6.7 µM | 1.1 µM | 12.6 µM | 1.26 µM | 1.05 µM | 136 µM | 11.5 µM | 110 µM | 0.116 µM | 1.09 µM | 11.4 µM | O=C(NCCCNCCCCNCCCNC(=O)C(F)(F)F)C(F)(F)F
16 | 0.45 µM | 11 µM | 0.5 µM | 0.74 µM | 0.63 µM | 0.044 µM | 0.54 µM | 13.3 µM | 0.5 µM | 0.65 µM | 0.052 µM | 0.42 µM |  | NCCCCCN
17 | 0.38 µM | 103 µM | 0.59 µM | 0.64 µM | 0.62 µM | 0.048 µM | 0.061 µM | > 500 µM | 0.42 µM | 0.57 µM | 0.058 µM | 0.36 µM | 0.51 µM | NCCNc1cccc2ccccc12
18 | 0.37 µM | 34.4 µM | 0.64 µM | 0.72 µM | 0.69 µM | 0.61 µM | 0.58 µM | 12.6 µM | 0.6 µM | 0.66 µM | 0.45 µM | 0.44 µM | 0.41 µM | NCCCCCCN
